Experiments:
A niger P1 - 1046 = experiment: MFC determination (subculture on Sabouraud Dextrose Agar); format: cell-based
Description: (§1) The in-vitro evaluation of the antifungal activity of the compounds can be performed by determining the minimum inhibitory concentration (MIC) as shown in Table 1 which is the concentration of the test compound in Rosewell Park Memorial Institute (RPMI) 1640 liquid medium buffered with 3-(Morpholino)propanesulphonic acid (MOPS) to pH 7, at which there is significant inhibition of the particular fungi. In practice the National Committee for Clinical Laboratory Standard (NCCLS) M27A document for Candida and Cryptococcus and M38P for Aspergillus was used to determine the MIC against yeast and filamentous fungi with suitable modifications for dermatophytes to other filamentous fungi. Three quality control strains were included each time the MIC were determined and readings recorded only when the Quality Control results fell into the acceptable range. After MIC results had been recorded, 100 μl from each of the well showing no growth was spread over Sabouraud Dextrose Agar (SDA) to determine the minimum fungicidal concentration (MFC) as shown in Table 2.

A flavus P2 - 1045 = experiment: as above; format: cell-based
Description: as §1

Penicillium 2306 = experiment: as above; format: cell-based
Description: as §1

Penicillium 191 [1] = experiment: as above; format: cell-based
Description: as §1

A flavus E4 - 1042 [2] = experiment: as above; format: cell-based
Description: as §1

Alternaria 1051 = experiment: as above; format: cell-based
Description: as §1

Mucor (Ceylon) = experiment: as above; format: cell-based
Description: as §1

Penicillium H - 1048 = experiment: as above; format: cell-based
Description: as §1

Penicillium 2548 = experiment: as above; format: cell-based
Description: as §1

Rhizopus (Ceylon) = experiment: as above; format: cell-based
Description: as §1

Penicillium 31620 = experiment: as above; format: cell-based
Description: as §1

C parapsilosis 22019 = experiment: as above; format: cell-based
Description: as §1

Penicillium I - 1049 = experiment: as above; format: cell-based
Description: as §1

Penicillium 1641 [3] = experiment: as above; format: cell-based
Description: as §1

Fusarium (Ceylon) = experiment: as above; format: cell-based
Description: as §1

A niger E5 - 1047 [4] = experiment: as above; format: cell-based
Description: as §1

Rhizopus 1052 [5] = experiment: as above; format: cell-based
Description: as §1

Fusarium 29600 = experiment: as above; format: cell-based; settings: Fusarium 29600
Description: as §1

C krusei 6258 = experiment: as above; format: cell-based
Description: as §1

Fusarium 18270 = experiment: as above; format: cell-based; settings: Fusarium 18270
Description: as §1

A flavus E3 - 1044 = experiment: as above; format: cell-based
Description: as §1

A flavus P3 - 1041 = experiment: as above; format: cell-based
Description: as §1

A fumigatus 1008 [6] = experiment: MIC determination (NCCLS broth method); format: cell-based, Aspergillus fumigatus
Description: as §1

A fumigatus J - 1032 = experiment: MIC determination (NCCLS broth method); format: cell-based, Aspergillus fumigatus
Description: as §1

A fumigatus I - 1011 = experiment: MIC determination (NCCLS broth method); format: cell-based, Aspergillus fumigatus
Description: as §1

A fumigatus K - 1033 = experiment: MIC determination (NCCLS broth method); format: cell-based, Aspergillus fumigatus
Description: as §1

A fumigatus L - 1034 = experiment: MIC determination (NCCLS broth method); format: cell-based, Aspergillus fumigatus
Description: as §1

A fumigatus PGI - 1023 = experiment: MIC determination (NCCLS broth method); format: cell-based, Aspergillus fumigatus
Description: as §1

A fumigatus II - 1012 = experiment: MIC determination (NCCLS broth method); format: cell-based, Aspergillus fumigatus
Description: as §1

A fumigatus SI-1 - 1019 [7] = experiment: MIC determination (NCCLS broth method); format: cell-based, Aspergillus fumigatus
Description: as §1

P variotii 22319 [8] = experiment: MIC determination (NCCLS broth method); format: cell-based, Paecillomyces variotii
Description: as §1

C neoformans I = experiment: MIC determination (NCCLS broth method); format: cell-based, Cryptococcus neoformans
Description: as §1

C neoformans M-106 = experiment: MIC determination (NCCLS broth method); format: cell-based, Cryptococcus neoformans
Description: as §1

C albicans A-26 = experiment: MIC determination (NCCLS broth method); format: cell-based, Candida albicans
Description: as §1

C albicans Y01.19 = experiment: MIC determination (NCCLS broth method); format: cell-based, Candida albicans
Description: as §1

A fumigatus 1008 [9] = experiment: MFC determination (subculture on Sabouraud Dextrose Agar); format: cell-based, Aspergillus fumigatus
Description: as §1

A fumigatus SI-1 - 1019 [10] = experiment: as above; format: cell-based, Aspergillus fumigatus
Description: as §1

Penicillium 191 [11] = experiment: MIC determination (NCCLS broth method); format: cell-based
Description: as §1

A flavus E4 - 1042 [12] = experiment: MIC determination (NCCLS broth method); format: cell-based
Description: as §1

C tropicalis 750 = experiment: MIC determination (NCCLS broth method); format: cell-based
Description: as §1

C glabrata 90030 = experiment: MIC determination (NCCLS broth method); format: cell-based
Description: as §1

Penicillium 1641 [13] = experiment: MIC determination (NCCLS broth method); format: cell-based
Description: as §1

A niger E5 - 1047 [14] = experiment: MIC determination (NCCLS broth method); format: cell-based
Description: as §1

Rhizopus 1052 [15] = experiment: MIC determination (NCCLS broth method); format: cell-based
Description: as §1

P variotii 22319 [16] = experiment: MFC determination (subculture on Sabouraud Dextrose Agar); format: cell-based, Paecillomyces variotii
Description: as §1

C[C@@H](n1ncn(-c2ccc(N3CCN(c4ccc(Cl)cc4)CC3)cc2)c1=S)[C@](O)(Cn1cncn1)c1ccc(F)cc1F [Compound No. 1, 2-{[1R,2R]-2-(2,4-Difluorophenyl)-2-hydroxy-1-methyl-3-(1H-1,2,4-triazole-1-yl)propyl}-4-{4-[4-(4-chlorophenyl)-1-piperizinyl]phenyl}-3-(2H,4H)-1,2,4-thiotriazolone]
Minimum Fungicidal Concentration (MFC) (A niger P1 - 1046): 0.06 µg/mL
Minimum Fungicidal Concentration (MFC) (A flavus P2 - 1045): 0.03 µg/mL
Minimum Fungicidal Concentration (MFC) (Penicillium 2306): 0.06 µg/mL
Minimum Fungicidal Concentration (MFC) (Penicillium 191 [1]): 0.125 µg/mL
Minimum Fungicidal Concentration (MFC) (A flavus E4 - 1042 [2]): 0.03 µg/mL
Minimum Fungicidal Concentration (MFC) (Alternaria 1051): 0.06 µg/mL
Minimum Fungicidal Concentration (MFC) (Mucor (Ceylon)): 1 µg/mL
Minimum Fungicidal Concentration (MFC) (Penicillium H - 1048): 4 µg/mL
Minimum Fungicidal Concentration (MFC) (Penicillium 2548): 0.125 µg/mL
Minimum Fungicidal Concentration (MFC) (Rhizopus (Ceylon)): 0.5 µg/mL
Minimum Fungicidal Concentration (MFC) (Penicillium 31620): 0.125 µg/mL
Minimum Fungicidal Concentration (MFC) (C parapsilosis 22019): 0.016 µg/mL
Minimum Fungicidal Concentration (MFC) (Penicillium I - 1049): 1 µg/mL
Minimum Fungicidal Concentration (MFC) (Penicillium 1641 [3]): 0.25 µg/mL
Minimum Fungicidal Concentration (MFC) (Fusarium (Ceylon)): 32 µg/mL
Minimum Fungicidal Concentration (MFC) (A niger E5 - 1047 [4]): 0.06 µg/mL
Minimum Fungicidal Concentration (MFC) (Rhizopus 1052 [5]): 0.03 µg/mL
Minimum Fungicidal Concentration (MFC) (Fusarium 29600): >128 µg/mL
Minimum Fungicidal Concentration (MFC) (C krusei 6258): 0.016 µg/mL
Minimum Fungicidal Concentration (MFC) (Fusarium 18270): >128 µg/mL
Minimum Fungicidal Concentration (MFC) (A flavus E3 - 1044): 0.03 µg/mL
Minimum Fungicidal Concentration (MFC) (A flavus P3 - 1041): 0.06 µg/mL
Minimum Inhibitory Concentration (MIC) (A fumigatus 1008 [6]): 0.016 µg/mL
Minimum Inhibitory Concentration (MIC) (A fumigatus J - 1032): 0.008 µg/mL
Minimum Inhibitory Concentration (MIC) (A fumigatus I - 1011): 0.016 µg/mL
Minimum Inhibitory Concentration (MIC) (A fumigatus K - 1033): 0.008 µg/mL
Minimum Inhibitory Concentration (MIC) (A fumigatus L - 1034): 0.008 µg/mL
Minimum Inhibitory Concentration (MIC) (A fumigatus PGI - 1023): 0.016 µg/mL
Minimum Inhibitory Concentration (MIC) (A fumigatus II - 1012): 0.008 µg/mL
Minimum Inhibitory Concentration (MIC) (A fumigatus SI-1 - 1019 [7]): 0.016 µg/mL
Minimum Inhibitory Concentration (MIC) (P variotii 22319 [8]): 0.004 µg/mL
Minimum Inhibitory Concentration (MIC) (C neoformans I): 0.008 µg/mL
Minimum Inhibitory Concentration (MIC) (C neoformans M-106): 0.008 µg/mL
Minimum Inhibitory Concentration (MIC) (C albicans A-26): 0.016 µg/mL
Minimum Inhibitory Concentration (MIC) (C albicans Y01.19): 0.03 µg/mL
Minimum Fungicidal Concentration (MFC) (A fumigatus 1008 [9]): 0.03 µg/mL
Minimum Fungicidal Concentration (MFC) (A fumigatus SI-1 - 1019 [10]): 0.03 µg/mL
Minimum Inhibitory Concentration (MIC) (Penicillium 191 [11]): 0.06 µg/mL
Minimum Inhibitory Concentration (MIC) (A flavus E4 - 1042 [12]): 0.008 µg/mL
Minimum Inhibitory Concentration (MIC) (C tropicalis 750): 0.008 µg/mL
Minimum Inhibitory Concentration (MIC) (C glabrata 90030): 0.06 µg/mL
Minimum Inhibitory Concentration (MIC) (Penicillium 1641 [13]): 0.25 µg/mL
Minimum Inhibitory Concentration (MIC) (A niger E5 - 1047 [14]): 0.03 µg/mL
Minimum Inhibitory Concentration (MIC) (Rhizopus 1052 [15]): 0.0005 µg/mL
Minimum Fungicidal Concentration (MFC) (P variotii 22319 [16]): 0.06 µg/mL

From US6710049B2, “Azole compounds as anti-fungal agents” (Ranbaxy Laboratories Limited, priority 2000, dated 2004)
